# Positions of bridges follow the written chain, without caps; N, C: chain ends. No end group written: not given here.
# Experiments:
# [1] = tested on: L. lactis MK43; test: Antibacterial activity assay (MIC), two-fold serial dilutions in liquid medium; type: cell-based; settings: MHB, 0.1% BSA, 37 °C, 24 h, no visible growth
# Method: Antibacterial activity of recombinant bacteriocins against a number of Gram-positive and Gram-negative bacteria (Table S2) was determined by the method of two-fold serial dilutions in a liquid medium. Two-fold serial dilutions of bacteriocins were prepared in sterile 96-well flat-bottom polystyrene microplates (Eppendorf, Hamburg, Germany) (Cat. No. 0030730.011) in a volume of 50 µL of sterile 0.1% bovine serum albumin (BSA) (SERVA Electrophoresis GmbH, Heidelberg, Germany) to prevent non-specific sorption of peptides to the surface of the plate wells [23]. Mid-log phase bacterial cultures were diluted with the 2x Mueller-Hinton broth (MHB) (Sigma-Aldrich, St. Louis, MO, USA) to a final cell concentration of 10^6 colony forming units (CFU) per mL. To determine the activity of bacteriocins against Listeria and Enterococci, 3% tryptic soy broth (TSB) (Merck-Millipore, Burlington, MA, USA) was used instead of MHB. Aliquots of 50 μL of diluted bacterial suspensions were added to each well of the plate, which was then incubated at 37 °C and 950 rpm for 24 h using thermostatable plate shaker PST-60HL-4 (Biosan, Riga, Latvia). As a negative control, 50 µL of the sterile growth medium (2xMHB or 6% TSB) was added to the wells containing 50 µL of 0.1% BSA. The values of the minimum inhibitory concentrations (MIC) were determined as the minimum concentration of the peptide, at which there was no visible growth of bacterial culture. Incubation for 2 h with 20 µg/mL chromogenic substrate resazurin (Sigma-Aldrich, St. Louis, MO, USA) was used to detect viable bacterial cells if they were difficult to visually detect. To study the effect of inorganic salts on the antimicrobial activity of bacteriocins, antibacterial activity assay was carried out in MHB medium supplemented with 0.9% NaCl.
# [2] = Circular dichroism spectroscopy, secondary structure estimation; type: physicochemical; settings: calculated from previously published CD spectra
# [3] = tested on: A. baumannii XDR CI 2675; type: cell-based; settings: XDR CI 2675, 24 h
# In short: (§1)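 MIC read as the minimum peptide concentration without visible growth, aided by 2 h resazurin (20 µg/mL) when needed. Cells from mid-log cultures (10^6 CFU/mL, 2x MHB or 3% TSB for Listeria) met two-fold bacteriocin dilutions in 0.1% BSA for 24 h at 37 °C with shaking.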
# [4] = tested on: B. subtilis B-886; type: cell-based; settings: B-886, 24 h
# In short: as §1
# [5] = tested on: S. aureus 209P; type: cell-based; settings: 24 h
# In short: as §1
# [6] = tested on: M. phlei Ac-1221; type: cell-based; settings: 24 h
# In short: as §1
# [7] = tested on: E. coli ML-35p; type: cell-based; settings: 24 h
# In short: as §1
# [8] = tested on: E. coli ATCC 25922; type: cell-based; settings: ATCC 25922, 24 h
# In short: as §1
# [9] = tested on: E. coli SQ110; type: cell-based; settings: SQ110, 24 h
# In short: as §1
# [10] = tested on: P. aeruginosa MDR CI 1995; type: cell-based; settings: MDR CI 1995, 24 h
# In short: as §1
# [11] = tested on: M. luteus Ac-2229; type: cell-based; settings: Ac-2229, 24 h
# In short: as §1
# [12] = tested on: L. lactis MK66; type: cell-based; settings: MK66, 24 h
# In short: as §1
sequence,measurement,setting,value
TYYGNGVSCNKKGCSVDWGKAISIIGNNSAANLATGGAAGWKS (disulfide 9-14) [Avicin A],Minimum Inhibitory Concentration,[1],>32 µM
same,Random,[2]; Aqueous solution,39.3%
same,α-Helix,[2]; Aqueous solution,5.8%
same,β-Sheet,[2]; Aqueous solution,32.8%
same,β-Turn,[2]; Aqueous solution,22.1%
same,Random,[2]; DPC micelles,27.8%
same,α-Helix,[2]; DPC micelles,19.4%
same,β-Sheet,[2]; DPC micelles,28.6%
same,β-Turn,[2]; DPC micelles,21.6%
same,Random,[2]; SDS micelles,30.4%
same,α-Helix,[2]; SDS micelles,19.7%
same,β-Sheet,[2]; SDS micelles,29.3%
same,β-Turn,[2]; SDS micelles,23.1%
same,Minimum Inhibitory Concentration,[3],>32 µM
same,Minimum Inhibitory Concentration,[4],>32 µM
same,Minimum Inhibitory Concentration,[5],>32 µM
same,Minimum Inhibitory Concentration,[6],>32 µM
same,Minimum Inhibitory Concentration,[7],>32 µM
same,Minimum Inhibitory Concentration,[8],>32 µM
same,Minimum Inhibitory Concentration,[9],>32 µM
same,Minimum Inhibitory Concentration,[10],>32 µM
same,Minimum Inhibitory Concentration,[11],>32 µM
same,Minimum Inhibitory Concentration,[12],>32 µM

# From publication PMC9780942, “Antimicrobial Activity and Immunomodulatory Properties of Acidocin A, the Pediocin-like Bacteriocin with the Non-Canonical Structure” (Membranes, 2022)
